# Values of other authors in US20240082153A1, “IVERMECTIN FORMULATION IN ORAL SOLUTION” (PROCAPS S.A., priority 2020, published 2024).
# Assays:
# [1] = system: SARS-CoV-2; settings: in vitro, after 48 hours
substance,measurement,setting,value
Ivermectin,reduction in viral RNA,[1],"approximately 5,000 fold"
same,solubility in water,,practically insoluble in water
